From PubChem BioAssay (NCI)
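Each compound was tested at five concentrations against cells in 96-well plates for 48 hours. TGI marks complete inhibition of growth.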

Legend:
Test in all cases: inhibition of tumour cell growth, NCI panel, 48 h
HOP-62 NSCLC = test system: HOP-62 NSCLC
UO-31 renal = test system: UO-31 renal
M14 melanoma = test system: M14 melanoma
HT29 colon = test system: HT29 colon
CAKI-1 renal = test system: CAKI-1 renal
HOP-92 NSCLC = test system: HOP-92 NSCLC
MOLT-4 leukemia = test system: MOLT-4 leukemia
NCI-H23 lung = test system: NCI-H23 lung
SNB-19 CNS = test system: SNB-19 CNS
K-562 leukemia = test system: K-562 leukemia
SN12C renal = test system: SN12C renal
BT-549 breast = test system: BT-549 breast
SK-OV-3 ovarian = test system: SK-OV-3 ovarian
NCI-H460 lung = test system: NCI-H460 lung
SK-MEL-5 melanoma = test system: SK-MEL-5 melanoma
CCRF-CEM leukemia = test system: CCRF-CEM leukemia
DU-145 prostate = test system: DU-145 prostate
SNB-75 CNS = test system: SNB-75 CNS
IGROV1 ovarian = test system: IGROV1 ovarian
HL-60(TB) leukemia = test system: HL-60(TB) leukemia
EKVX NSCLC = test system: EKVX NSCLC
SK-MEL-28 melanoma = test system: SK-MEL-28 melanoma
UACC-62 melanoma = test system: UACC-62 melanoma
NCI-H226 lung = test system: NCI-H226 lung
HCC-2998 colon = test system: HCC-2998 colon
RPMI-8226 leukemia = test system: RPMI-8226 leukemia
COLO 205 colon = test system: COLO 205 colon
A498 renal = test system: A498 renal
HCT-116 colon = test system: HCT-116 colon
SW-620 colon = test system: SW-620 colon
HS 578T breast = test system: HS 578T breast
SF-268 CNS = test system: SF-268 CNS
KM12 colon = test system: KM12 colon
OVCAR-4 ovarian = test system: OVCAR-4 ovarian
MDA-MB-435 = test system: MDA-MB-435
T-47D breast = test system: T-47D breast
A549 NSCLC = test system: A549 NSCLC
PC-3 prostate = test system: PC-3 prostate
SK-MEL-2 melanoma = test system: SK-MEL-2 melanoma
UACC-257 melanoma = test system: UACC-257 melanoma
786-0 renal = test system: 786-0 renal
HCT-15 colon = test system: HCT-15 colon
LOX IMVI melanoma = test system: LOX IMVI melanoma
MDA-N = test system: MDA-N
RXF 393 renal = test system: RXF 393 renal
SR leukemia = test system: SR leukemia
ACHN renal = test system: ACHN renal
MALME-3M melanoma = test system: MALME-3M melanoma
SF-539 CNS = test system: SF-539 CNS
OVCAR-8 ovarian = test system: OVCAR-8 ovarian
OVCAR-3 ovarian = test system: OVCAR-3 ovarian
MCF7 breast = test system: MCF7 breast
NCI/ADR-RES ovarian = test system: NCI/ADR-RES ovarian
OVCAR-5 ovarian = test system: OVCAR-5 ovarian
SF-295 CNS = test system: SF-295 CNS
NCI-H522 lung = test system: NCI-H522 lung
U251 CNS = test system: U251 CNS
TK-10 renal = test system: TK-10 renal

Measured: TGI

CCOc1cc(NC(C)=O)ccc1C(=O)NNS(=O)(=O)c1ccc(NC(C)=O)cc1
39.2 µM: MDA-N
89.5 µM: NCI-H226 lung
76.2 µM: COLO 205 colon
> 100 µM: HOP-62 NSCLC | UO-31 renal | M14 melanoma | HT29 colon | CAKI-1 renal | HOP-92 NSCLC | MOLT-4 leukemia | NCI-H23 lung | SNB-19 CNS | K-562 leukemia | SN12C renal | BT-549 breast | SK-OV-3 ovarian | NCI-H460 lung | CCRF-CEM leukemia | DU-145 prostate | SNB-75 CNS | IGROV1 ovarian | EKVX NSCLC | SK-MEL-28 melanoma | UACC-62 melanoma | HCC-2998 colon | A498 renal | HCT-116 colon | SW-620 colon | HS 578T breast | SF-268 CNS | KM12 colon | OVCAR-4 ovarian | MDA-MB-435 | T-47D breast | A549 NSCLC | PC-3 prostate | UACC-257 melanoma | 786-0 renal | HCT-15 colon | LOX IMVI melanoma | RXF 393 renal | SR leukemia | ACHN renal | MALME-3M melanoma | SF-539 CNS | OVCAR-8 ovarian | OVCAR-3 ovarian | MCF7 breast | NCI/ADR-RES ovarian | OVCAR-5 ovarian | SF-295 CNS | NCI-H522 lung
95.2 µM: SK-MEL-2 melanoma
78.8 µM: HL-60(TB) leukemia
86.4 µM: RPMI-8226 leukemia
69.3 µM: SK-MEL-5 melanoma

O=C1c2c(Br)sc(Br)c2C(=O)C1(O)O
42.6 µM: SK-MEL-5 melanoma
34.3 µM: OVCAR-4 ovarian
> 100 µM: U251 CNS | HOP-62 NSCLC | HT29 colon | TK-10 renal | SNB-19 CNS | SN12C renal | SK-OV-3 ovarian | NCI-H460 lung | DU-145 prostate | SNB-75 CNS | IGROV1 ovarian | HL-60(TB) leukemia | EKVX NSCLC | SK-MEL-28 melanoma | UACC-62 melanoma | NCI-H226 lung | HCC-2998 colon | RPMI-8226 leukemia | A498 renal | SW-620 colon | HS 578T breast | SF-268 CNS | KM12 colon | A549 NSCLC | 786-0 renal | LOX IMVI melanoma | MDA-N | ACHN renal | OVCAR-8 ovarian | MCF7 breast | NCI/ADR-RES ovarian | SF-295 CNS
34.7 µM: HOP-92 NSCLC
93.5 µM: MOLT-4 leukemia
33.6 µM: M14 melanoma
49.4 µM: T-47D breast
73.4 µM: HCT-15 colon
37.6 µM: RXF 393 renal
85 µM: CCRF-CEM leukemia
35.9 µM: OVCAR-3 ovarian
37.9 µM: BT-549 breast
58.2 µM: UO-31 renal
39.4 µM: SF-539 CNS
57.4 µM: SR leukemia
86.7 µM: SK-MEL-2 melanoma
99.6 µM: NCI-H23 lung
51.1 µM: PC-3 prostate
50.3 µM: OVCAR-5 ovarian
38.9 µM: MDA-MB-435
38.4 µM: HCT-116 colon
79.8 µM: K-562 leukemia
33.3 µM: CAKI-1 renal
34.6 µM: MALME-3M melanoma
37.4 µM: UACC-257 melanoma
50.7 µM: COLO 205 colon
37.3 µM: NCI-H522 lung
